Consider 1 compound from patent publication USRE49873E1, “APP specific bace inhibitors (ASBIs) and uses thereof” (BUCK INSTITUTE FOR RESEARCH ON AGING, priority 2012, dated 2024).

In one test the test system is autophagy. Conditions: Wen et al. (2012); cited from earlier work.
In test [1] the target is T1, BACE cleavage of the MBP-C125 APP substrate (Homo sapiens, UniProt P05067).
T1 construct: purchased Sigma (methods); R&D (HTS description) B9059; 931-AS-050
Kind of test: ASBI assay a): BACE cleavage of MBP-C125 substrate (C99 by AlphaLISA). In kind it is biochemical. Here is the method: As illustrated in the Examples, in one embodiment, an MBP-C125 APP695 wt fusion protein can be used as one of the substrates. The second substrate can be the commercially available P5-P5′ fluorescence substrate. Each of these substrates is incubated with recombinant BACE (R&D (cat#931-AS-050) in, for example, a 96 well plate format. For the MBP-C125 substrate the C-99 product from the BACE cleavage can be measured using an AlphaLisa assay as a readout. For the P5-5′ substrate the […] upon BACE cleavage can be used as the readout. An ASBI would inhibit the BACE cleavage of the MBP-C125 substrate while not being inhibitory of the fluorescence substrate.
A protein construct of Maltose-Binding-Protein carrying the 125 C-terminal residues of APP (1 uL of 1 mM in water) was incubated with a flavonoid (100 uM) for 15 minutes. The mix was then submitted to cleavage by BACE (Sigma #B9059, 5 μl of 3 unit/ml in BACE buffer) for 30 minutes. After 0, 10, 20 and 30 minutes, 2 uL the reaction mixture were frozen and the different time points were quantified simultaneously for the amount of APP-C99 created. The quantification was done by using a Perkin Elmer ALPHALisa Amyloid Amyloid Beta kit (AL275C) modified by replacing the anti-Abeta acceptor beads (AL275AC) with anti-APP acceptor beads (AL275AC) and making the antibody mix with 2×ALPHALisa buffer. […]

Test [2] has as its target T2, BACE cleavage of the P5-P5′ substrate (Homo sapiens, UniProt P56817).
T2 construct: purchased Sigma-Aldrich (kit); R&D (HTS description) CS0010; 931-AS-050
The experiment in a line: ASBI assay b): P5-P5′ fluorescence substrate cleavage assay. In kind it is biochemical. To be noted: flavonoids at 100 uM. Here is the method: As illustrated in the Examples, in one embodiment, an MBP-C125 APP695 wt fusion protein can be used as one of the substrates. The second substrate can be the commercially available P5-P5′ fluorescence substrate. Each of these substrates is incubated with recombinant BACE (R&D (cat#931-AS-050) in, for example, a 96 well plate format. For the MBP-C125 substrate the C-99 product from the BACE cleavage can be measured using an AlphaLisa assay as a readout. For the P5-5′ substrate the […] upon BACE cleavage can be used as the readout. An ASBI would inhibit the BACE cleavage of the MBP-C125 substrate while not being inhibitory of the fluorescence substrate. […]
A primary high-throughput screening (HTS) assay was set up for identification of ASBIs using a dual-substrate testing paradigm (FIGS. 3A & 3B). The previously reported (Sinha et al. (1999) Nature, 402: 537-540) BACE substrate the MBP-C125 APP695 wt fusion protein consisting of maltose binding protein fused to the carboxyterminal 125 amino acids of wild type APP, was used as the primary substrate; and the commercially available P5-P5′ fluorescence substrate, derived from the P5-P5′ residues of the BACE cleavage site of APP, was used as the secondary substrate. […]

The test system of test [3] is BACE1 cleavage of neuregulin1 in HEK293 cells. The experiment in a line: Neuregulin1 shedding assay (SEAP-NRG1-β1). Conditions: 10 μM, HEK293 cells co-expressing BACE1. In kind it is cell-based, human. Here is the method: Chinese Hamster Ovary (CHO) cells stably over-expressing human APP were treated with 10 μM Galangin or DMSO for 24 hr, then the cell lysates and conditioned media were collected. The levels of full length APP and β-CTF in the cell lysates and the levels of sAPPα in the conditioned media were detected by western blot. […] BACE1-dependent cleavage of SEAP-NRG1-β1 was evaluated by SEAP assays with supernatants of control human embryonic kidney 293 (HEK293) cells (SEAP-NRG1-β1) or HEK293 cells co-expressing BACE1 (SEAP-NRG1-β1+BACE1), treated with DMSO or Galangin (10 μM). An increase in shedding of the SEAP-NRG1-b1 fusion protein was measured upon BACE1 co-expression. Shedding in co-expressing cells was not suppressed by Galangin. Error bars indicate SEM. (N.S., p>0.05; n=4, student t test).
A cDNA construct encoding a human placental secreted alkaline phosphatase (SEAP)-NRG1 (pAPtag5-NRG1-β1) fusion protein was transfected in HEK293 cells in a 6-well format with or without full-length wild-type BACE1 using Lipofectamine 2000 (Invitrogen) as described previously (Vassar et al. (1999) Science, 286: 735-741). After transfection the medium was replaced with DMEM containing 10% heat-inactivated Fetal Bovine Serum and incubated for 24 hr. SEAP activity was measured in the conditioned medium. […] The absorbance was read at 405 nm. […]

In test [4] the target is acetylcholine esterase (AChE) (Homo sapiens, UniProt P22303). Conditions: Guo et al. (2010); cited from earlier work.
Chain of acetylcholine esterase (AChE) (P22303 32-614): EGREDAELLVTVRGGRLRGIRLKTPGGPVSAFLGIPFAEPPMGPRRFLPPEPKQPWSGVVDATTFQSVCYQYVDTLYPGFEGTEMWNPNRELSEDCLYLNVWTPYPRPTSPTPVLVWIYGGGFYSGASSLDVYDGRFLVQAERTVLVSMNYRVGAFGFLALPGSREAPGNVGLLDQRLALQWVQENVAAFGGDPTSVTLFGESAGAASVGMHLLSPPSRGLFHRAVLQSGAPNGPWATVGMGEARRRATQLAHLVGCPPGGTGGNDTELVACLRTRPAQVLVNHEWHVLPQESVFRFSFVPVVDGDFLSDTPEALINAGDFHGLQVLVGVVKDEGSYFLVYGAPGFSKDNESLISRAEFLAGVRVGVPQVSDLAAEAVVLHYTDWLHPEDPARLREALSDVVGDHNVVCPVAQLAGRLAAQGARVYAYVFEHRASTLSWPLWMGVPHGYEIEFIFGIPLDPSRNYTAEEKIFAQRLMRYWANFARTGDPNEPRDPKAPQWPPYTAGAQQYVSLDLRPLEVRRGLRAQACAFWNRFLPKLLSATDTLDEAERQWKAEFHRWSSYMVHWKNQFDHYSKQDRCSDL

T1 sequence (P05067 646-770 limits assumed): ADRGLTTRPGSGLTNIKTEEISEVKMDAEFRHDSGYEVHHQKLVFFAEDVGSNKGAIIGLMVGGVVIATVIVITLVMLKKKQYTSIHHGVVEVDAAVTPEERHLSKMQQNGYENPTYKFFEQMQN
T2 sequence (P56817 46-501): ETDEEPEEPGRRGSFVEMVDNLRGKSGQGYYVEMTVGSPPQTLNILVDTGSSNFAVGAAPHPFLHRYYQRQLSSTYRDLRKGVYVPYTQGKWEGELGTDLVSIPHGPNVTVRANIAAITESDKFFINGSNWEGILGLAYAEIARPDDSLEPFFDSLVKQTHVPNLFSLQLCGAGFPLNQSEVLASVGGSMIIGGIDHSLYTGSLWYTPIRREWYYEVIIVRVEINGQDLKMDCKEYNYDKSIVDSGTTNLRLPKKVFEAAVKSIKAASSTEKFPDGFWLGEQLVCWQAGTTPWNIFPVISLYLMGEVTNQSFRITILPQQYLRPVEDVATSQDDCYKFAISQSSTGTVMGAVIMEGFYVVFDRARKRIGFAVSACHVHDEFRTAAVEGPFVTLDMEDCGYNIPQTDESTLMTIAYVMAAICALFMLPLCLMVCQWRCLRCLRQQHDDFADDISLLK

As to `O=c1c(O)c(-c2ccccc2)oc2cc(O)cc(O)c12` [Galangin], in the test with autophagy, the induction of autophagy result is on record as “induce autophagy”. In addition, the “inhibition of BACE cleavage of the MBP-C125 substrate” value in test [1] (HTS at 10 uM, flavonoid panel at 100 uM) is “inhibiting the cleavage of the MBP substrate by BACE”. The “dose at which effective as an ASBI” value in test [1] (in the ASBI assays) is 50 µM. The “inhibition of BACE cleavage of the P5-P5′ substrate” value in test [2] is listed as “showing no inhibition of the P5-P5′ substrate”. Moreover, in test [3], the “BACE1-dependent shedding of SEAP-NRG1-β1” value was “does not inhibit BACE1 cleavage of neuregulin1”. For the same compound, in test [4], the “inhibitor of acetylcholine esterase (AChE)” value was “inhibitor of acetylcholine esterase (AChE)”.
